According to patent publication EP0319576B1, “PROSTAGLANDIN DERIVATIVES, PROCESSES FOR PREPARING THEM AND PHARMACEUTICAL COMPOSITIONS CONTAINING SAID DERIVATIVES” (IBI- Istituto Biochimico Italiano Giovanni Lorenzini S.p.A., priority 1987, dated 1988):

Assays:
Oral LD50 in the rat = conditions: in vivo
Ethanol (1) +NEM = experiment: Cytoprotective activity in the rat, Ethanol + NEM; format: in vivo; conditions: read-out: Cytoprotective activity DE50, Ethanol (1) +NEM
Method: (§1) iv) Cytoprotective activity in the rat
(§2) The tests were carried out according to what has been described in literature: • 1 (A.Robert et al. Gastroenterology, 77, 433 (1979)) (Table 4) • 2 (Szabo et al. Sciene 214 (200) (1981)) (Table 4)

NaCl (2) 25% = experiment: Cytoprotective activity in the rat, NaCl 25%; format: in vivo; conditions: read-out: Cytoprotective activity DE50, NaCl (2) 25%
Method: as §1, §2

NaOH (2) 0.2 N = experiment: Cytoprotective activity in the rat, NaOH 0.2 N; format: in vivo; conditions: read-out: Cytoprotective activity DE50, NaOH (2) 0.2 N
Method: as §1, §2

[1] = system: Acetyl salicyl-ic acid + HCl; experiment: Cytoprotective activity in the rat, acetylsalicylic acid + HCl; format: in vivo; conditions: read-out: Cytoprotective activity DE50, Acetyl salicyl-ic acid + HCl
Method: as §1, §2

CCCCCCC1CCC2(NC(=O)NC2=O)C1CCCCCCC(=O)O (centres unmarked) [IBI-P-01028, 5-spiro-[2-(6-carboxy-ethyl)-3-hexyl-cyclopentyl]-imidazoline-2,4-dione]
LD50 (Oral LD50 in the rat): 2000 mg/kg | ED50 (Ethanol (1) +NEM): 30 mg/kg | ED50 (NaCl (2) 25%): 15 mg/kg | ED50 (NaOH (2) 0.2 N): 18 mg/kg | ED50 [1]: 78 mg/kg

CCCCCCC1CCC(N)C1CCCCCCC(OCC)OCC (centres unmarked) [IBI-P-01053, 3-hexyl-2-(6-diethoxymethyl-hexyl)-cyclopentyl amine]
LD50 (Oral LD50 in the rat): 3000 mg/kg | ED50 (Ethanol (1) +NEM): 7 mg/kg | ED50 (NaCl (2) 25%): 17 mg/kg | ED50 (NaOH (2) 0.2 N): 6 mg/kg | ED50 [1]: 252 mg/kg

CCCCCCC1CCCC(N)C1CCCCCCC(=O)O (centres unmarked) [IBI-P-05006, 3-hexyl-2-(6-carboxy-hexyl)-cyclohexyl-amine]
LD50 (Oral LD50 in the rat): 3000 mg/kg | ED50 (Ethanol (1) +NEM): 20 mg/kg | ED50 (NaCl (2) 25%): 25 mg/kg | ED50 (NaOH (2) 0.2 N): 9 mg/kg | ED50 [1]: > 200 mg/kg

CCCCCC1C(N)CCC1CCCCCCCCO (centres unmarked) [IBI-P-10007, 2-pentyl-3-(8-hydroxy-octyl)-cyclopentyl amine]
LD50 (Oral LD50 in the rat): 3000 mg/kg | ED50 (Ethanol (1) +NEM): 8 mg/kg | ED50 (NaCl (2) 25%): 4 mg/kg | ED50 (NaOH (2) 0.2 N): 4 mg/kg | ED50 [1]: 165 mg/kg
